Assay results from US20240059703A1 (AMGEN INC., priority 2021, published 2024).
pIC50: −log10 of the molar value.

Experiments:
KRAS G12C = KRAS G12C (Homo sapiens (Human), UniProt P01116, C118A/G12C); experiment: 2 h coupled exchange assay; assay type: biochemical; conditions: Avg 2 h Coupled exchange IC50, 2 h compound pre-incubation
Description: The term “2 h coupled exchange assay” or “20 h coupled exchange assay” as used herein refers to the assay described in the Section entitled “BIOLOGICAL EVALUATION.”

[1] = test system: MIA PaCa-2 (human pancreatic carcinoma) cells; experiment: Cell Viability Assay (CellTiter-Glo), MIA PaCa-2; assay type: cell-based
Description: Serially-diluted compound or DMSO was added to the cells, and plates were incubated at 37° C., 5% CO2 for 72 h. Cell viability was measured using a CellTiter-Glo® Luminescent Cell Viability Assay kit (Promega) according to the manufacturer's protocol. The luminescence signal of treated samples was normalized to DMSO control, and data were analyzed using a 4-parameter logistic model to calculate IC50 values.

[2] = test system: A549 (human lung carcinoma) cells; experiment: Cell Viability Assay (CellTiter-Glo), A549; assay type: cell-based; conditions: Homo sapiens, A549, 72 h
How it was run: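 MIA PaCa-2 or A549 cells in RPMI 1640 with 10% FBS were seeded at 1.67E+04 cells/mL and incubated overnight. Serially diluted compound was then added for 72 h at 37° C, 5% CO2. Viability read by CellTiter-Glo luminescence, normalized to DMSO, with IC50 from a 4-parameter logistic fit.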

[3] = SOS-mediated nucleotide exchange

Sequence of KRAS G12C (P01116 other isoform, or with tags, fused parts or gaps G12C/C118A): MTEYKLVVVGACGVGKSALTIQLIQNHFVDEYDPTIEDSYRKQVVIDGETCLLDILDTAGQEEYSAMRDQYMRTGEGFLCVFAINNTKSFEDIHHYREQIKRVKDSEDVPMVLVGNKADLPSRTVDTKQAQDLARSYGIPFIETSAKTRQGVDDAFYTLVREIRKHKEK

SMILES	pIC50 (KRAS G12C)	pIC50 ([1]; Homo sapiens, MIA PaCa-2, 72 h)	pIC50 [2]	pIC50 (KRAS G12C; [3])	pIC50 ([1]; 72 h)
C=CC(=O)N1CC2(CCN(c3cc4c(c(-c5c(C)ccc6[nH]ncc56)c3Cl)OCCC4)C2)C1 [Example 31-1, 1-(6-(7-chloro-8-(5-methyl-1H-indazol-4-yl)-3,4-dihydro-2H-chromen-6-yl)-2,6-diazaspiro[3.4]octan-2-yl)-2-propen-1-one]	7.12	7.47	< 5.30		
C=CC(=O)N1CC2(CCN(c3cc4c(c(-c5c(C)ccc6[nH]ncc56)c3C#N)CCCC4)C2)C1 [Example 2-93, 1-(5-methyl-1H-indazol-4-yl)-3-(2-(2-propenoyl)-2,6-diazaspiro[3.4]octan-6-yl)-5,6,7,8-tetrahydro-2-naphthalenecarbonitrile]		7.15	5.69	7.72	
C=CC(=O)N1CC2(CCN(c3nc4c(F)cccc4c(-c4c(C)ccc5[nH]ncc45)c3C#N)C2=O)C1 [Example 1-44, 8-fluoro-4-(5-methyl-1H-indazol-4-yl)-2-(5-oxo-2-(2-propenoyl)-2,6-diazaspiro[3,4]octan-6-yl)-3-quinolinecarbonitrile]		5.19	4.90	5.17	
C=CC(=O)N1CC2(CCN(c3nc4c(c(-c5cccc6c5NCCC6)c3C)CCN(C(C)C)C4)C2)C1 [Example 18-5, 1-(6-(3-methyl-7-(2-propanyl)-4-(1,2,3,4-tetrahydro-8-quinolinyl)-5,6,7,8-tetrahydro-1,7-naphthyridin-2-yl)-2,6-diazaspiro[3.4]octan-2-yl)-2-propen-1-one]	6.00	6.26	4.82		
C=CC(=O)N1CC2(CCN(c3nc4c(c(-c5ccccc5F)c3C#N)COC(c3scnc3C)C4)C2)C1 [Example 23-8, (7R)-4-(2-fluorophenyl)-7-(4-methyl-1,3-thiazol-5-yl)-2-(2-(2-propenoyl)-2,6-diazaspiro[3.4]octan-6-yl)-7,8-dihydro-5H-pyrano[4,3-b]pyridine-3-carbonitrile(7S)-4-(2-fluorophenyl)-7-(4-methyl-1,3-thiazol-5-yl)-2-(2-(2-propenoyl)-2,6-diazaspiro[3.4]octan-6-yl)-7,8-dihydro-5H-pyrano[4,3-b]pyridine-3-carbonitrile]	6.77	5.65	< 5.30		
C=CC(=O)N1CC2(CCN(c3nc4c(c(-c5c(C)ccc6[nH]nc(C)c56)n3)CCCC4)C2)C1 [Example 1-36, 1-(6-(4-(3,5-dimethyl-1H-indazol-4-yl)-5,6,7,8-tetrahydro-2-quinazolinyl)-2,6-diazaspiro[3.4]octan-2-yl)-2-propen-1-one]		5.47	4.80	5.78	
C=CC(=O)N1CC2(CCN(c3nc4c(c(-c5ccccc5F)c3C#N)CCN(C(C)CN(C)C)C4)C2)C1 [Example 21-38, 7-((2R)-1-(dimethylamino)-2-propanyl)-4-(2-fluorophenyl)-2-(2-(2-propenoyl)-2,6-diazaspiro[3.4]octan-6-yl)-5,6,7,8-tetrahydro-1,7-naphthyridine-3-carbonitrile 7-((2S)-1-(dimethylamino)-2-propanyl)-4-(2-fluorophenyl)-2-(2-(2-propenoyl)-2,6-diazaspiro[3.4]octan-6-yl)-5,6,7,8-tetrahydro-1,7-naphthyridine-3-carbonitrile]	6.75	6.71	< 5.30		
C=CC(=O)N1CC2(CCN(c3nc4cc(-c5scnc5C)cnc4c(-c4ccccc4OC)c3C#N)C2)C1 [Example 19-6, 4-(2-methoxyphenyl)-7-(4-methyl-1,3-thiazol-5-yl)-2-(2-(2-propenoyl)-2,6-diazaspiro[3.4]octan-6-yl)-1,5-naphthyridine-3-carbonitrile]	6.44	5.95	< 5.30		
C=CC(=O)N1CC2(CCN(c3nc4c(c(-c5c(C)ccc6[nH]ncc56)c3F)C[C@H]3C[C@@H]4C3(C)C)C2)C1 [Example 14-72, 1-(6-((1R,9R)-5-fluoro-10,10-dimethyl-6-(5-methyl-1H-indazol-4-yl)-3-azatricyclo[7.1.1.0^2,7]undeca-2,4,6-trien-4-yl)-2,6-diazaspiro[3.4]octan-2-yl)-2-propen-1-one]	7.52	7.62	< 5.30		
C=CC(=O)N1CC2(CCN(c3nc4c(c(-c5cccc(O)c5F)c3C#N)CCN(c3scnc3C)C4)C2)C1 [Example 35-1, 4-(2-fluoro-3-hydroxyphenyl)-7-(4-methyl-1,3-thiazol-5-yl)-2-(2-(2-propenoyl)-2,6-diazaspiro[3.4]octan-6-yl)-5,6,7,8-tetrahydro-1,7-naphthyridine-3-carbonitrile]	7.17	< 5.30	< 5.30		
COC/C=C/C(=O)N1CC2(CCN(c3nc4c(c(-c5c(C)ccc6[nH]ncc56)c3C#N)CCC(C)(C)C4)C2)C1 [Example 13-4, 2-(2-((2E)-4-methoxy-2-butenoyl)-2,6-diazaspiro[3.4]octan-6-yl)-7,7-dimethyl-4-(5-methyl-1H-indazol-4-yl)-5,6,7,8-tetrahydro-3-quinolinecarbonitrile]		5.79	< 5.30	6.45	
C=CC(=O)N1CC2(CCN(c3nc4c(c(-c5c(C)ccc6cnn(C)c56)c3C#N)CC(C)(C)C4)C2)C1 [Example 13-16, 4-(1,6-dimethyl-1H-indazol-7-yl)-6,6-dimethyl-2-(2-(2-propenoyl)-2,6-diazaspiro[3.4]octan-6-yl)-6,7-dihydro-5H-cyclopenta[b]pyridine-3-carbonitrile]		6.41	< 5.30	7.09	
C=CC(=O)N1CC2(CCN(c3nc4c(c(-c5ccc(F)cc5Cl)c3C#N)CCC(c3scnc3C)=C4)C2)C1 [Example 23-18, 4-(2-chloro-4-fluorophenyl)-7-(4-methyl-1,3-thiazol-5-yl)-2-(2-(2-propenoyl)-2,6-diazaspiro[3.4]octan-6-yl)-5,6-dihydro-3-quinolinecarbonitrile]	6.98		5.54		6.23
C=CC(=O)N1CC2(CCN(c3nc4c(c(-c5cc(O)cc6ccccc56)c3C#N)C3CCC4C3)C2)C1 [Example 2-38, (1R,8S)-6-(3-hydroxy-1-naphthalenyl)-4-(2-(2-propenoyl)-2,6-diazaspiro[3.4]octan-6-yl)-3-azatricyclo[6.2.1.0^2,7]undeca-2,4,6-triene-5-carbonitrile|(1S, 8R)-6-(3-hydroxy-1-naphthalenyl)-4-(2-(2-propenoyl)-2,6-diazaspiro[3.4]octan-6-yl)-3-azatricyclo[6.2.1.0^2,7]undeca-2,4,6-triene-5-carbonitrile]		6.80	5.47	7.17	
C=CC(=O)N1CC2(CCN(c3nc4c(c(-c5ccccc5F)c3C#N)CCN(c3scnc3C)[C@@H]4C)C2)C1 [Example 21-5, (8R)-4-(2-fluorophenyl)-8-methyl-7-(4-methyl-1,3-thiazol-5-yl)-2-(2-(2-propenoyl)-2,6-diazaspiro[3.4]octan-6-yl)-5,6,7,8-tetrahydro-1,7-naphthyridine-3-carbonitrile]	7.24	6.34	5.40		
C=CC(=O)N1CC2(CCN(c3nc4cc(-c5cncs5)ccc4c(-c4ccccc4F)c3C#N)C2)C1 [Example 20-19, 4-(2-fluorophenyl)-2-(2-(2-propenoyl)-2,6-diazaspiro[3.4]octan-6-yl)-7-(1,3-thiazol-5-yl)-3-quinolinecarbonitrile]	6.49	5.68	5.32		
C=CC(=O)N1CC2(CCN(c3nc4c(c(-c5c(C)ccc6cnn(C)c56)c3C)CCN(C3CCCN(C)C3)C4)C2)C1 [Example 18-20, 1-(6-(4-(1,6-dimethyl-1H-indazol-7-yl)-3-methyl-7-((3R)-1-methyl-3-piperidinyl)-5,6,7,8-tetrahydro-1,7-naphthyridin-2-yl)-2,6-diazaspiro[3.4]octan-2-yl)-2-propen-1-one|1-(6-(4-(1,6-dimethyl-1H-indazol-7-yl)-3-methyl-7-((3S)-1-methyl-3-piperidinyl)-5,6,7,8-tetrahydro-1,7-naphthyridin-2-yl)-2,6-diazaspiro[3.4]octan-2-yl)-2-propen-1-one]	6.43	6.87	< 4.60		
C=CC(=O)N1CC2(CCN(c3nc4c(c(-c5c(C)ccc6[nH]ncc56)c3C#N)CCC(C)C4)C2)C1 (stereo not drawn) [Example 2-1, 2-(2-acryloyl-2,6-diazaspiro[3.4]octan-6-yl)-7-methyl-4-(5-methyl-1H-indazol-4-yl)-5,6,7,8-tetrahydroquinoline-3-carbonitrile]		6.37	5.51	7.38	
C=CC(=O)N1CC2(CCN(c3nc4c(c(-c5c(C)ccc6[nH]ncc56)n3)CCCC4)C2)C1 [Example 1-17, 1-(6-(4-(5-methyl-1H-indazol-4-yl)-5,6,7,8-tetrahydro-2-quinazolinyl)-2,6-diazaspiro[3.4]octan-2-yl)-2-propen-1-one]		< 5.30	< 5.30	5.24	
C=CC(=O)N1CC2(CCN(c3nc4c(c(-c5cc(O)cc6ccccc56)c3F)COC(C)(C)C4)C2)C1 [Example 14-68, 1-(6-(3-fluoro-4-(3-hydroxy-1-naphthalenyl)-7,7-dimethyl-7,8-dihydro-5H-pyrano[4,3-b]pyridin-2-yl)-2,6-diazaspiro[3.4]octan-2-yl)-2-propen-1-one]	7.30	7.04	< 5.30		
